A short description of data set [1]: The drug is tested on Z-019 corresponding to rat gut metagenome with ENA study accession number: PRJEB37062 and ENA sample accession number: ERS12561818 for biotransformation under anaerobic condition. The drug concentrations were measured over 9 timepoints collected between 0 and 24 hours of incubation by liquid-chromatography-coupled mass spectrometry (LC–MS). The following applies: 2 µM.

Data set [2] can be described thus: The drug is tested on Z-017 corresponding to mouse gut metagenome with ENA study accession number: PRJEB37062 and ENA sample accession number: ERS12561816 for biotransformation under anaerobic condition. The drug concentrations were measured over 9 timepoints collected between 0 and 24 hours of incubation by liquid-chromatography-coupled mass spectrometry (LC–MS). As to conditions: 2 µM.

The nature of data set [3]: The drug is tested on Z-016 corresponding to mouse gut metagenome with ENA study accession number: PRJEB37062 and ENA sample accession number: ERS12561815 for biotransformation under anaerobic condition. The drug concentrations were measured over 9 timepoints collected between 0 and 24 hours of incubation by liquid-chromatography-coupled mass spectrometry (LC–MS). As to conditions: 2 µM.

Data set [4] can be described thus: The drug is tested on Z-014 corresponding to rat gut metagenome with ENA study accession number: PRJEB37062 and ENA sample accession number: ERS12561814 for biotransformation under anaerobic condition. The drug concentrations were measured over 9 timepoints collected between 0 and 24 hours of incubation by liquid-chromatography-coupled mass spectrometry (LC–MS). As to conditions: 2 µM.

The nature of data set [5]: The drug is tested on Z-008 corresponding to metagenome with ENA study accession number: PRJEB37062 and ENA sample accession number: ERS12561808 for biotransformation under anaerobic condition. The drug concentrations were measured over 9 timepoints collected between 0 and 24 hours of incubation by liquid-chromatography-coupled mass spectrometry (LC–MS). The following applies: 2 µM.

Data set [6] can be described thus: The drug is tested on Z-001 corresponding to mouse gut metagenome with ENA study accession number: PRJEB37062 and ENA sample accession number: ERS12561801 for biotransformation under anaerobic condition. The drug concentrations were measured over 9 timepoints collected between 0 and 24 hours of incubation by liquid-chromatography-coupled mass spectrometry (LC–MS). As to conditions: 2 µM.

A short description of data set [7]: The drug is tested on WLS-310 corresponding to human gut metagenome with ENA study accession number: PRJEB37062 and ENA sample accession number: ERS12561785 for biotransformation under anaerobic condition. The drug concentrations were measured over 9 timepoints collected between 0 and 24 hours of incubation by liquid-chromatography-coupled mass spectrometry (LC–MS). As to conditions: 2 µM.

Data set [8] can be described thus: The drug is tested on WLS-010 corresponding to human gut metagenome with ENA study accession number: PRJEB37062 and ENA sample accession number: ERS12561743 for biotransformation under anaerobic condition. The drug concentrations were measured over 9 timepoints collected between 0 and 24 hours of incubation by liquid-chromatography-coupled mass spectrometry (LC–MS). The following applies: 2 µM.

The nature of data set [9]: The drug is tested on WLS-007 corresponding to human gut metagenome with ENA study accession number: PRJEB37062 and ENA sample accession number: ERS12561742 for biotransformation under anaerobic condition. The drug concentrations were measured over 9 timepoints collected between 0 and 24 hours of incubation by liquid-chromatography-coupled mass spectrometry (LC–MS). As to conditions: 2 µM.

For data set [10] the following is noted: human gut metagenome, 24 h, 2 µM.
For data set [11] the following is noted: human gut metagenome, 24 h, 2 µM. The source holds these as a separate data set.
For data set [12] the following is noted: human gut metagenome, 24 h, 2 µM. This is another data set of the same source.
The conditions of data set [13]: human gut metagenome, 24 h, 2 µM. The source holds these as a separate data set.
For data set [14] the following is noted: human gut metagenome, 24 h, 2 µM. This is another data set of the same source.
For data set [15] the following is noted: human gut metagenome, 24 h, 2 µM. The source holds these as a separate data set.
The conditions of data set [16]: human gut metagenome, 24 h, 2 µM. This is another data set of the same source.
The conditions of data set [17]: human gut metagenome, 24 h, 2 µM. This is another data set of the same source.
Data set [18] is described as follows: The drug is tested on Z-028 corresponding to mouse gut metagenome with ENA study accession number: PRJEB37062 and ENA sample accession number: ERS12561827 for biotransformation under anaerobic condition. The drug concentrations were measured over 9 timepoints collected between 0 and 24 hours of incubation by liquid-chromatography-coupled mass spectrometry (LC–MS). As to conditions: 2 µM.

Data set [19] can be described thus: The drug is tested on Z-026 corresponding to metagenome with ENA study accession number: PRJEB37062 and ENA sample accession number: ERS12561825 for biotransformation under anaerobic condition. The drug concentrations were measured over 9 timepoints collected between 0 and 24 hours of incubation by liquid-chromatography-coupled mass spectrometry (LC–MS). As to conditions: 2 µM.

The structures appear in SMILES notation.
Also: call rule not given here.

As for `CCC1(c2ccc(N)cc2)CCC(=O)NC1=O` (configuration not stated) [AMINOGLUTETHIMIDE], the “Bacterial Biotransformation” value in data set [1], in data set [2], in [3], in data set [4], in data set [5] and in [6] was “Compound NOT metabolized” each time. Further, the “Bacterial Biotransformation” value in [7], in data set [8], in data set [9], in data set [10], in data set [11] and in data set [12] was “Compound NOT metabolized” each time. Besides, the “Bacterial Biotransformation” value in [13], in data set [14], in data set [15], in data set [16] and in data set [17] was “Compound NOT metabolized” throughout.
With `CN1C(=O)CCS(=O)(=O)C1c1ccc(Cl)cc1` (configuration not stated) [CHLORMEZANONE], the “Bacterial Biotransformation” value in [18], in [19], in data set [1], in data set [2], in [3] and in data set [4] was “Compound NOT metabolized” throughout. Moreover, the “Bacterial Biotransformation” value in data set [5], in data set [6], in [7], in data set [8], in data set [9] and in data set [10] was “Compound NOT metabolized” in each case. Moreover, the “Bacterial Biotransformation” value in data set [11], in data set [12], in data set [13], in data set [14], in [15] and in data set [16] was “Compound NOT metabolized” in each case. In addition, the “Bacterial Biotransformation” value in [17] was “Compound NOT metabolized”.
Take `CN1C[C@H](C(=O)N[C@]2(C)O[C@@]3(O)[C@@H]4CCCN4C(=O)[C@H](Cc4ccccc4)N3C2=O)C=C2c3cccc4[nH]cc(c34)C[C@H]21.CN1C[C@H](C(=O)N[C@]2(C)O[C@@]3(O)[C@@H]4CCCN4C(=O)[C@H](Cc4ccccc4)N3C2=O)C=C2c3cccc4[nH]cc(c34)C[C@H]21.O=C(O)C(O)C(O)C(=O)O` [ERGOTAMINE TARTRATE]: the “Bacterial Biotransformation” value was “Compound NOT metabolized” in data set [5]; “Compound metabolized” in data set [7]; “Compound metabolized” in [8]; “Compound metabolized” in data set [9]; “Compound metabolized” in [10]; “Compound metabolized” in data set [11]. Moreover, the “Bacterial Biotransformation” value is on record as “Compound metabolized” in data set [12]; “Compound metabolized” in [13]; “Compound metabolized” in [14]; “Compound NOT metabolized” in [15]; “Compound NOT metabolized” in data set [16]; “Compound metabolized” in data set [17].
With `COC(=O)C1=C(C)NC(C)=C(C(=O)OC(C)C)C1c1cccc2nonc12` (configuration not stated) [ISRADIPINE], the “Bacterial Biotransformation” value in data set [6] was “Compound NOT metabolized”; in [7] it was “Compound metabolized”; in data set [8] it was “Compound metabolized”; in data set [9], “Compound metabolized”; in data set [10], “Compound metabolized”; in data set [11] it was “Compound NOT metabolized”. Moreover, the “Bacterial Biotransformation” value in [12] was “Compound metabolized”; in data set [13], “Compound metabolized”; in [14], “Compound metabolized”; in data set [15] it was “Compound NOT metabolized”; in [16], “Compound NOT metabolized”; in [17], “Compound metabolized”.
Take `COc1ccccc1N1CCN(CC(O)COc2cccc3ccccc23)CC1` (configuration not stated) [NAFTOPIDIL]: the “Bacterial Biotransformation” value in data set [18] was “Compound metabolized”; in data set [1], “Compound NOT metabolized”; in data set [2], “Compound NOT metabolized”; in data set [3], “Compound NOT metabolized”; in [4], “Compound NOT metabolized”; in data set [5] it was “Compound NOT metabolized”. Besides, the “Bacterial Biotransformation” value in data set [6], in data set [7], in [8], in data set [9], in data set [10] and in data set [11] was “Compound NOT metabolized” each time. The “Bacterial Biotransformation” value in data set [12], in data set [13], in [14], in data set [15], in data set [16] and in data set [17] was “Compound NOT metabolized” in each case.
As to `Cc1nc2n(c(=O)c1CCN1CCC(c3noc4cc(F)ccc34)CC1)CCCC2O` (configuration not stated) [PALIPERIDONE], the “Bacterial Biotransformation” value in data set [19], in data set [2], in data set [3], in data set [4], in data set [5] and in data set [6] was “Compound NOT metabolized” each time. The “Bacterial Biotransformation” value in data set [7], in data set [8], in data set [9], in data set [10], in [11] and in data set [12] was “Compound metabolized” each time. The “Bacterial Biotransformation” value in data set [13] was “Compound metabolized”; in [14], “Compound metabolized”; in data set [15], “Compound NOT metabolized”; in data set [16] it was “Compound metabolized”; in data set [17], “Compound metabolized”.
For `Cc1ccc(/C(=C\CN2CCCC2)c2ccccn2)cc1` [TRIPROLIDINE], the “Bacterial Biotransformation” value in data set [18], in [19], in data set [3], in data set [4], in [5] and in data set [6] was “Compound NOT metabolized” throughout. Also, the “Bacterial Biotransformation” value in data set [7], in data set [8], in data set [9], in [10], in [11] and in data set [12] was “Compound NOT metabolized” throughout. In addition, the “Bacterial Biotransformation” value in data set [13], in data set [14], in [15], in [16] and in data set [17] was “Compound NOT metabolized” each time.

These data come from ChEMBL document CHEMBL5724914, “Linking interpersonal differences in gut microbiota composition and drug biotransformation activity” (2024).
